Results on twelve molecules are retold here after patent US4954358A, “Multiplication inhibitor for Bacillus cereus” (priority 1986, dated 1990).

Common to all, as to assay type: cell-based
The subject of one assay is total viable bacteria. Description: Keeping test, cooked rice not contaminated with Bacillus cereus, 30° C. The conditions noted are these: time without smell of putrefaction or change in outward appearance.
Another assay relates to Bacillus coaglans. Put plainly: MIC, agar plate dilution method on standard nutrient agar. The conditions noted are these: Bacillus coaglans spores, 37° C., 24 hours. The protocol:
(§1) The minimum growth inhibiting concentration (MIC) of various antibacterial substances against Bacillus cereus and other general putrefying bacteria were measured by using a standard nutrient agar (made by Difco Corp.) and by introducing the agar plate dilution method.
(§2) On a plain culture medium on which chemicals were placed in a stepwise dilution system the liquid spore suspension (×10^8 /ml) with respect to the strains of the genus of Bacillus and the respective pre-culture mediums (37° C., 24 hours) provided by Brain Heart Infusion Broth with respect to the other strains were smeared.

For another assay, the system named is Lactobacillus casei. Described as above. The conditions noted are these: 37° C., 24 hours. The protocol: as §1, §2
For assay [1], the system named is Bacillus cereus. The assay is described as above. The conditions noted are these: for minimum growth inhibiting concentration (MIC): Bacillus cereus spores, 37° C., 24 hours, judged with the naked eye; for growth inhibition effect against Bacillus cereus: standard nutrient agar, result in words. The protocol: as §1, §2
In another assay the test system is Bacillus megaterium. The assay is described as above. The note with it: Bacillus megaterium spores, 37° C., 24 hours. The protocol: as §1, §2
A further assay deals with Bacillus licheniformis. The description is as above. The conditions noted are these: Bacillus licheniformis spores, 37° C., 24 hours. The protocol:
as §1, §2

The test system of assay [2] is Leuconostoc mesenteroides. The description is as above. The note with it: 37° C., 24 hours. The protocol:
as §1, §2

The test system of the next assay is Streptococcus faecalis. The assay is described as above. The conditions noted are these: 37° C., 24 hours. The protocol: as §1, §2
For the next assay, the system named is Staphylococcus aureus. Described as above. The conditions noted are these: 37° C., 24 hours. The protocol:
as §1, §2

The test system of another assay is Bacillus subtilis. The assay is described as above. The conditions noted are these: Bacillus subtilis spores, 37° C., 24 hours. The protocol: as §1, §2
Assay [3] relates to Bacillus cereus. Put plainly: Keeping test, cooked rice contaminated with Bacillus cereus, 30° C. The conditions noted are these: for effectiveness against Bacillus cereus in tests with actual food: cooked rice (Example 4), result in words; for Effective keeping time: cooked rice contaminated with Bacillus cereus, 30° C., time until Bacillus cereus 10^6 /g or more. The protocol:
Two hundred grams of polished rice was washed in water, and with the addition of 240 ml of water, it was cooked for approximately 15 minutes in an electric rice-cooker which was of the type in public use. The rice cooked was left standing in hot steam for 10 minutes, and then left to cool off at room temperature. On the other hand, a suspension of spores of Bacillus cereus was prepared and added to the cooked rice, which had cooled off, in the proportion of n×10^2 to 1 g final specimen. Specimens were prepared by mixing the rice evenly with addition of the spores.
The cooked rice was put in a plastic case for each 120 g and its temperature was maintained at 30° C., and the number of total viable bacteria and the number of Bacillus cereus were measured periodically using a standard agar culture medium (37° C., 48 hours) and a polymyxin BCW agar culture medium with 5% egg yellow (37° C., 24 hours) for each In parallel with this measurement of the bacterium number, the specimens were examined concerning the outward appearance and the possible smell of putrefaction.
Each of the chemicals shown in Table 4 was dissolved in 20 ml of water to form an aqueous solution of a set concentration.

Assay [4] has as its system Bacillus cereus. Put plainly: Keeping test, potato salad contaminated with Bacillus cereus, 30° C. The note with it: time until Bacillus cereus 10^6 /g or more. The protocol: (§3) Potato salad was prepared according to the following recipe.
(§4) Mayonnaise in the proportion of 10% by weight against the above materials was combined with various chemicals of prescribed concentrations listed in Table 5 and these were evenly mixed with the above food materials. Mixed specimens were prepared by inoculating Bacillus cereus in the form of a spore suspension in such a way as to make the bacterial number n×10^2 per gram on the final specimen.
The same Bacillus cereus as in Example 1 was employed for this example.
(§5) The potato salad thus prepared was packed into plastic containers and left standing at 30° C. The bacterial number of total viable active bacteria and that of Bacillus cereus were measured with respect to the changes with time by the same method as in Example 1.
(§6) The effective keeping time and the figures in the upper and the lower spaces for each chemical in the list are used in the same meanings as in Example 4.

The test system of assay [5] is total viable active bacteria. Description: Keeping test, potato salad not contaminated with Bacillus cereus, 30° C. The note with it: time without smell of putrefaction or change in outward appearance. The protocol:
as §3, §4, §5, §6

`NCC(=O)O` [Glycine]: the Effective keeping time with total viable bacteria (chemical 1% by weight) stood at 110.0 h; with Bacillus cereus [3] (chemical 1% by weight) it was 10.1 h; in the assay on Bacillus cereus [4] (chemical 1% by weight), 12.0 h; in assay [5] (chemical 1% by weight), 36.0 h. Further, the minimum growth inhibiting concentration (MIC) with Bacillus coaglans is 1%; with Lactobacillus casei, 4%; in the assay on Bacillus cereus [1], > 8%; in the assay on Bacillus megaterium, 1%; in the assay on Bacillus licheniformis it was 2%; in [2], 4%. Also, the minimum growth inhibiting concentration (MIC) in the assay with Streptococcus faecalis is 4%; in the assay with Staphylococcus aureus, 5%; in the assay on Bacillus subtilis it was 1%. Further, the “effectiveness against Bacillus cereus in tests with actual food” value with Bacillus cereus [3] is “proved effective, though the effect is of no practical value”.
As to `C/C=C/C=C/C(=O)O` [Sorbic acid], the Effective keeping time is 38.6 h with Bacillus cereus [4] (chemical 0.1% by weight) and 96.0 h in assay [5] (chemical 0.1% by weight).
With Sodium polyphosphate, the Effective keeping time in the assay on total viable bacteria (chemical 0.5% by weight) is 35.0 h; with Bacillus cereus [3] (chemical 0.5% by weight), 9.0 h. In addition, the minimum growth inhibiting concentration (MIC) with Bacillus coaglans came out at 0.5%; in the assay on Lactobacillus casei, 0.5%; in the assay with Bacillus cereus [1], 0.5%; with Bacillus megaterium (in %) it was 0.025; in the assay on Bacillus licheniformis (in %), 0.025; in assay [2], 0.5%. In addition, the results for the minimum growth inhibiting concentration (MIC) in the assay on Streptococcus faecalis, in the assay with Staphylococcus aureus and in the assay with Bacillus subtilis (in %) were 0.5%, 0.5% and 0.025, respectively. Besides, the “growth inhibition effect against Bacillus cereus” value (from here on “growth inhibition effect”) in the assay on Bacillus cereus [1] is “showed effectiveness”.
On to Lysozyme, for which the results for the Effective keeping time in the assay with total viable bacteria (chemical 0.05% by weight) and with Bacillus cereus [3] (chemical 0.05% by weight) were 35.0 h and 8.5 h, respectively. Besides, the minimum growth inhibiting concentration (MIC) was 0.05% in the assay on Bacillus coaglans; > 0.05% with Lactobacillus casei; > 0.05% with Bacillus cereus [1]; 0.05% in the assay on Bacillus megaterium; > 0.05% with Bacillus licheniformis; > 0.05% in [2]. Moreover, the minimum growth inhibiting concentration (MIC) in the assay on Streptococcus faecalis was > 0.05%; in the assay on Staphylococcus aureus, > 0.05%; in the assay with Bacillus subtilis it was 0.02%.
For `CCCCCCCCCC(=O)OCC(O)CO` (centres unmarked) [Capric acid monoglyceride], the Effective keeping time with total viable bacteria (chemical 0.01% by weight) was 35.0 h; in the assay on Bacillus cereus [3] (chemical 0.01% by weight) it was 8.4 h. For the same molecule, the minimum growth inhibiting concentration (MIC) in the assay with Bacillus coaglans was 0.01%; with Lactobacillus casei (in %) it was 0.025; in the assay with Bacillus cereus [1], 0.01%; in the assay on Bacillus megaterium, 0.01%; in the assay with Bacillus licheniformis it was 0.01%; in [2] (in %) it was 0.025. Moreover, the figures for the “minimum growth inhibiting concentration (MIC)” value in the assay on Streptococcus faecalis (in %), in the assay on Staphylococcus aureus (in %) and in the assay with Bacillus subtilis were 0.025, 0.025 and 0.01%, respectively. Besides, the “growth inhibition effect” value with Bacillus cereus [1] is “showed effectiveness”.
As for protamine, the “growth inhibition effect” value in the assay with Bacillus cereus [1] is given as “showed effectiveness”. The “effectiveness against Bacillus cereus in tests with actual food” value in the assay on Bacillus cereus [3] is recorded as “only protamine has proved to be effective”.
With `O=C([O-])c1ccccc1.[Na+]` [sodium benzoate], the Effective keeping time turned out to be 36.2 h with Bacillus cereus [4] (chemical 0.1% by weight) and 92.0 h in assay [5] (chemical 0.1% by weight).
Take `CCO` [Ethyl alcohol]: the Effective keeping time was determined as 10.0 h in the assay on Bacillus cereus [4] (chemical 1% by weight) and 29.2 h in [5] (chemical 1% by weight).
As for `O=P([O-])([O-])OP(=O)([O-])[O-].[Na+].[Na+].[Na+].[Na+]` [Sodium pyrophosphate], the values for the Effective keeping time with total viable bacteria (chemical 0.5% by weight) and in the assay with Bacillus cereus [3] (chemical 0.5% by weight) were 35.0 h and 8.6 h, respectively. Further, the minimum growth inhibiting concentration (MIC) (with Bacillus coaglans; in the assay on Lactobacillus casei; with Bacillus cereus [1]; in the assay with Bacillus megaterium; with Bacillus licheniformis; in [2]) was > 0.5% throughout. The minimum growth inhibiting concentration (MIC) in the assay with Streptococcus faecalis, in the assay on Staphylococcus aureus and in the assay with Bacillus subtilis was > 0.5% throughout.
Regarding Caprylic acid monoglyceride, the Effective keeping time with total viable bacteria (chemical 0.05% by weight) was found to be 35.0 h; in the assay with Bacillus cereus [3] (chemical 0.05% by weight), 8.6 h. Moreover, the minimum growth inhibiting concentration (MIC) (in the assay with Bacillus coaglans; in the assay with Lactobacillus casei; with Bacillus cereus [1]; in the assay with Bacillus megaterium; with Bacillus licheniformis; in assay [2]) was 0.05% in each case. Also, the minimum growth inhibiting concentration (MIC) came to 0.05% in the assay on Streptococcus faecalis, 0.1% in the assay on Staphylococcus aureus and 0.05% in the assay on Bacillus subtilis. For the same molecule, the “growth inhibition effect” value in the assay with Bacillus cereus [1] is “showed effectiveness”.
For the molecule protamine sulfate, the minimum growth inhibiting concentration (MIC) in the assay on Bacillus coaglans came out at 0.05%; with Lactobacillus casei, 0.1%; in the assay on Bacillus cereus [1], 0.1%; in the assay on Bacillus megaterium it was 0.05%; in the assay with Bacillus licheniformis, 0.05%; in assay [2], 0.1%. The minimum growth inhibiting concentration (MIC) in the assay with Streptococcus faecalis turned out to be 0.1%; with Staphylococcus aureus, 0.05%; in the assay with Bacillus subtilis it was 0.05%.
On to `O=P1([O-])OP(=O)([O-])OP(=O)([O-])OP(=O)([O-])OP(=O)([O-])OP(=O)([O-])O1.[Na+].[Na+].[Na+].[Na+].[Na+].[Na+]` [Sodium hexametaphosphate], for which the Effective keeping time worked out at 35.0 h with total viable bacteria (chemical 0.5% by weight) and 9.2 h in the assay with Bacillus cereus [3] (chemical 0.5% by weight). Also, the “minimum growth inhibiting concentration (MIC)” value (in the assay with Bacillus coaglans (in %); with Lactobacillus casei (in %); with Bacillus cereus [1] (in %); in the assay with Bacillus megaterium (in %); in the assay on Bacillus licheniformis (in %); in [2] (in %)) was 0.125 throughout. The “minimum growth inhibiting concentration (MIC)” value with Streptococcus faecalis (in %), in the assay on Staphylococcus aureus (in %) and in the assay with Bacillus subtilis (in %) was 0.125 each time. Moreover, the “growth inhibition effect” value in the assay on Bacillus cereus [1] is listed as “showed effectiveness”.
